Assays:
A431 = experiment: Cell growth inhibition in EGFR overexpressed A431; type: cell-based; settings: Homo sapiens, A-431; cellular level; read-out: IC50, cell growth inhibition in EGFR overexppressed A431
Monocytes (M-CSF) = experiment: High-dimensional phosphorylation analysis, Monocytes (M-CSF); type: cell-based, human
Experimental: (§1) The analysis measured 94 intracellular signaling nodes (81 phosphorylation sites, 10 total protein levels and 3 methylation/acetylation sites) in stimulated immune cells, including B cells (IgM plus CD40L), CD4 + and CD8 + T cells (IL-2; CD3 plus CD28), monocytes (M-CSF), NK cells (IL-2), and granulocytes (LPS).

BTK = target: T1, BTK (Rattus norvegicus, UniProt Q5S255); experiment: BTK occupancy and BTK phosphorylation in CIA model rats (PD); type: in vivo; settings: for correlation coefficient, arthritis score vs BTK occupancy: negative correlation; for correlation coefficient, clinical arthritis score vs BTK phosphorylation: positive correlation
T1 construct: endogenous in cells; host or cells: rat PBMCs (normal rats in vitro; CIA model rats ex vivo)
Experimental: The BTK occupancy assay and analysis of BTK phosphorylation inhibition were performed as described previously. Briefly, isolated PBMCs were lysed with RIPA buffer (R0278, Sigma-Aldrich) containing 1 × protease/phosphatase inhibitor (1861281, Thermo Fisher Scientific) and EDTA (1861274, Thermo Fisher Scientific). The supernatants were collected by 10 min at 14,000 × g in microcentrifuge at 4 °C and biotinylated probe was added to bind free BTK for 1 h. Rabbit anti-BTK Ab (1:5000 in 1% BSA) bound the captured BTK/probe complex, and was detected with […] antibody conjugated with HRP then ultra-TMB solution was added to each well for the free BTK analysis. Analysis of free and total BTK levels for the phase I study was conducted by Cambridge Biomedical Inc. (MA, USA). BTK occupancy was calculated by taking the free BTK and total BTK results from a given donor and used the following formula: %BTKoccupancy=100%-FreeBTK/totalBTK×100.
For analysis of BTK phosphorylation inhibition, the relative percentage of phosphorylated BTK was calculated by the following equation: phospho-BTK level / total BTK level × 100. The results are presented as the mean percentage ± S.D.
Figure 5 Pharmacologic inhibition of BTK and its correlation with efficacy. (A,B) Whole blood was collected from the CIA-induced rats at the 0, 4, 12, 24 h after final drug administration, and then PBMCs and plasma were isolated. BTK phosphorylation was detected by immunoblotting and normalized to the total BTK level, and BTK occupancy was measured by ELISA using a biotinylated probe as described in the Materials and Methods. […] Full-length blots are presented in Supplementary Fig. 1. (C) Correlations between drug efficacy (clinical arthritis score) and the PD markers BTK phosphorylation percentage (left)/drug efficacy and BTK occupancy percentage (right). Linear regression was performed by using GraphPad Prism 6. The data are presented as the mean ± S.D.

CIA model rats [1] = experiment: Histopathological assessment of arthritis in CIA rats; type: in vivo, rat; settings: for Histological assessment (Means of the 4 indexes): mean ± SEM
Experimental: Briefly, the hind legs of each rat were fixed with 10% formalin, decalcified in 5% formic acid, embedded in paraffin, and cut for pathological staining. Arthritis, bone erosion and synovitis were determined by hematoxylin and eosin (H&E) staining, and cartilage damage was evaluated by safranin O staining. All parameters were scored on a scale of 0 to 4 based on severity according to the following criteria: 0 = no erosion, 1 = mild (focal subchondral erosion), 2 = moderate (multiple subchondral erosions), 3 = high (multiple subchondral erosions and focal erosion of the talus), and 4 = maximum (multiple erosions of the tarsal and metatarsal bones). This test was conducted by the Department of Pathology of Asan Medical Center (University of Ulsan College of Medicine, Republic of Korea).

CTLL-2 = experiment: IL-2 induced T cell proliferation in CTLL-2; type: cell-based; settings: Mus musculus, cellular level
CIA model rats [2] = experiment: Collagen-induced arthritis (CIA) model, clinical score and body weight; type: in vivo, rat; settings: for Arthritis clinical score: day 8, mean ± SEM
Experimental: All animals were obtained from Charles River Japan (150 ± 10 g, 6 weeks old). The experimental protocols were approved by the animal care and use committee of the Hanmi Research Center and performed in accordance with approved guidelines. Briefly, 7-week-old male Lewis rats were immunized with a collagen emulsion of equal volumes of IFA ([…], Sigma-Aldrich) and bovine type II collagen (total volume, 0.6 mL) via intradermal injection into the base of the tail. Seven days later, the rats were given a booster immunization of 0.3 ml of collagen emulsion in the same manner. The incidence of arthritis was 79% on day 6 after booster immunization, and the rats were randomized into 4 groups when the average clinical score of each animal was 2.8 (on a scale of 16) (n = 20 in each drug-administered group, n = 8 in the CIA control group). […] The arthritis score was determined by grading each paw from 0 to 4 based on erythema, swelling, and flexion of the joint. Body weight was also measured three times per week.

CD8+ Memory (CD3+CD28) = experiment: High-dimensional phosphorylation analysis, CD8+ Memory (CD3+CD28); type: cell-based, human; settings: 30 µM, 5'
Experimental: as §1

[3] = Plasma pharmacokinetics in CIA model rats; type: in vivo; settings: Lewis, rat; for AUC(0-t) / Tmax / Cmax: day 9, mean ± SD; for Cmax: po
Experimental: After drug administration, whole blood was collected from CIA model rats and human subjects at the indicated times. Plasma was obtained by centrifugation at 12,000 rpm for 2 min and stored at − 20 °C until analysis.

[4] = 3 mg/kg, ankle joints, vs CIA control

T1 sequence (Q5S255 1-660): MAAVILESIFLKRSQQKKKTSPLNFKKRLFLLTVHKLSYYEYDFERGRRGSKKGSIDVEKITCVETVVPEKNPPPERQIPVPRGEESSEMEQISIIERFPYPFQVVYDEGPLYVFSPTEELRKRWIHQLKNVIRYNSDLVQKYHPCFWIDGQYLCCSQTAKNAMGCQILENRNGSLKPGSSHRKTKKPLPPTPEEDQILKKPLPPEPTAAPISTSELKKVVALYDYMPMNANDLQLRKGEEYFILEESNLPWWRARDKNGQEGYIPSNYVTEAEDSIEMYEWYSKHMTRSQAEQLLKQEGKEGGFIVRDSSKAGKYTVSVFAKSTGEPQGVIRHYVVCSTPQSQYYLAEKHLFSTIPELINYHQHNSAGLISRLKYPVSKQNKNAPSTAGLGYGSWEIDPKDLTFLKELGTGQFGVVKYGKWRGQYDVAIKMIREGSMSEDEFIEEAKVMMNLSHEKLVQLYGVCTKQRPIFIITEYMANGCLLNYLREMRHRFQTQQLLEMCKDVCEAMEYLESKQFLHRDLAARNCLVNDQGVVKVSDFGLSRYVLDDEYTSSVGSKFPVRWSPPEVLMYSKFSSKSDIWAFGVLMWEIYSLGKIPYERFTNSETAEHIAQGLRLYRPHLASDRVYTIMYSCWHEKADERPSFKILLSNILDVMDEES

IC50 (A431): > 0.5 µM
BTK occupancy (BTK; 3 mg/kg, 4 h after the last administration): full BTK occupancy
BTK occupancy (BTK; 3 mg/kg, at 12 and 24 h): completely occupied
BTK occupancy (BTK; 0.3 and 1 mg/kg, 4 h after the last administration): partial BTK occupancy
BTK phosphorylation (BTK; 0.3 and 1 mg/kg, at 12 and 24 h): partially inhibited
correlation coefficient, arthritis score vs BTK occupancy (BTK; 4 h): 0.8003
correlation coefficient, clinical arthritis score vs BTK phosphorylation (BTK; 4 h): 0.6750
correlation coefficient, arthritis score vs BTK occupancy (BTK; 12 h): 0.8757
correlation coefficient, clinical arthritis score vs BTK phosphorylation (BTK; 12 h): 0.7795
correlation coefficient, arthritis score vs BTK occupancy (BTK; 24 h): 0.8528
correlation coefficient, clinical arthritis score vs BTK phosphorylation (BTK; 24 h): 0.8603
AUC(0-t) ([3]; 0.3 mg/kg oral): 2 ± 1.8 ng·h/mL
Tmax ([3]; 0.3 mg/kg oral): 36 ± 18 min
AUC(0-t) ([3]; 1 mg/kg oral): 10 ± 3.6 ng·h/mL
Tmax ([3]; 1 mg/kg oral): 30 min
AUC(0-t) ([3]; 3 mg/kg oral): 49.9 ± 10.4 ng·h/mL
Tmax ([3]; 3 mg/kg oral): 84 ± 108 min
concentration at 4 h ([3]; oral, all treatment groups (0.3, 1, 3 mg/kg), day 9, below LLOQ, read-out: plasma concentration at 4 h after drug administration): < 0.5 ng/mL
Cmax ([3]; 0.3 mg/kg, 0.3 mg/kg oral): 1.5 ± 0.5 ng/mL
Cmax ([3]; 1 mg/kg, 1 mg/kg oral): 7.3 ± 3.3 ng/mL
Cmax ([3]; 3 mg/kg, 3 mg/kg oral): 22.6 ± 2.3 ng/mL
Compound: C=CC(=O)Nc1cccc(Oc2nc(Nc3ccc(N4CCN(C)CC4)cc3)nc3ccoc23)c1 [Poseltinib]
AKT1 phosphorylation, Log2Ratio Stim/Control (Monocytes (M-CSF); 30 µM, 5'): 0.41
Akt phosphorylation, Log2Ratio Stim/Control (Monocytes (M-CSF); 30 µM, 5'): 1.06
BTK phosphorylation, Log2Ratio Stim/Control (Monocytes (M-CSF); 30 µM, 5'): -0.12
GSK3B phosphorylation, Log2Ratio Stim/Control (Monocytes (M-CSF); 30 µM, 5'): 0.82
HSP27 phosphorylation, Log2Ratio Stim/Control (Monocytes (M-CSF); 30 µM, 5'): 1.80
MAPK3 phosphorylation, Log2Ratio Stim/Control (Monocytes (M-CSF); 30 µM, 5'): 1.88
NDRG1 phosphorylation, Log2Ratio Stim/Control (Monocytes (M-CSF); 30 µM, 5'): 0.97
RELB phosphorylation, Log2Ratio Stim/Control (Monocytes (M-CSF); 30 µM, 5'): 0.82
RPS6KA1 phosphorylation, Log2Ratio Stim/Control (Monocytes (M-CSF); 30 µM, 5'): 1.33
RPS6 phosphorylation, Log2Ratio Stim/Control (Monocytes (M-CSF); 30 µM, 5'): 0.89
AKT phosphorylation in monocytes stimulated with M-CSF (Monocytes (M-CSF); data not shown): did not inhibit
Histological assessment (Means of the 4 indexes) (CIA model rats [1]; 0.3 mg/kg oral once daily): 6.9 ± 0.2
Histological assessment (Means of the 4 indexes) (CIA model rats [1]; 1 mg/kg oral once daily): 6.3 ± 0.2
Histological assessment (Means of the 4 indexes) (CIA model rats [1]; 3 mg/kg oral once daily): 4.1 ± 0.2
arthritis index reduction (CIA model rats [1]; [4]): 44%
bone erosion index reduction (CIA model rats [1]; [4]): 38%
cartilage degradation index reduction (CIA model rats [1]; [4]): 37%
synovitis index reduction (CIA model rats [1]; [4]): 37%
IC50 (CTLL-2): > 0.5 µM
Arthritis clinical score (CIA model rats [2]; 0.3 mg/kg oral once daily): 8.5 ± 0.5
Arthritis clinical score (CIA model rats [2]; 1 mg/kg oral once daily): 6.7 ± 0.6
disease-induced body weight loss (CIA model rats [2]; 3 mg/kg): prevented weight loss
Arthritis clinical score (CIA model rats [2]; 3 mg/kg oral once daily): 2.7 ± 0.4
BTK phosphorylation, Log2Ratio Stim/Control (CD8+ Memory (CD3+CD28)): 1.34
CrL phosphorylation, Log2Ratio Stim/Control (CD8+ Memory (CD3+CD28)): 1.59
HS1 phosphorylation, Log2Ratio Stim/Control (CD8+ Memory (CD3+CD28)): 0.56
LCK phosphorylation, Log2Ratio Stim/Control (CD8+ Memory (CD3+CD28)): 1.52
PLCγ2 phosphorylation, Log2Ratio Stim/Control (CD8+ Memory (CD3+CD28)): 2.55
RPS6KA1 phosphorylation, Log2Ratio Stim/Control (CD8+ Memory (CD3+CD28)): 0.47
SRC phosphorylation, Log2Ratio Stim/Control (CD8+ Memory (CD3+CD28)): 0.80
WIPF1 phosphorylation, Log2Ratio Stim/Control (CD8+ Memory (CD3+CD28)): 0.82
ZAP70 phosphorylation, Log2Ratio Stim/Control (CD8+ Memory (CD3+CD28)): 1.33

Reference: publication PMC8455565 (Scientific Reports, 2021)
